# Laboratory results as given in patent US20240390508A1, “HUMAN TRANSFERRIN RECEPTOR BINDING PEPTIDE-DRUG CONJUGATE” (priority 2021, published 2024).
# pKd: −log10 of the molar value.
# Target: transferrin receptor (hTfR) (Homo sapiens, UniProt P02786)
# Assay: Intermolecular interaction evaluation test between transferrin receptor (hTfR) and peptide-nucleic acid conjugate using surface plasmon resonance (SPR)
# Assay type: binding
# Protocol: Intermolecular interaction evaluation test between transferrin receptor (hTfR) and peptide using surface plasmon resonance (SPR)
# The various synthesized peptide-nucleic acid conjugates were tested for intermolecular interaction by surface plasmon resonance (SPR) of the peptide-nucleic acid conjugate with transferrin receptor (hTfR) using the method shown below. The specific test method is shown below.
# NTA sensor chip (Global Life Science Technologies Japan Co., Ltd.) was inserted into Biacore T200 (Global Life Science Technologies Japan Co., Ltd.), prime operation was performed three times with running buffer: 10 mM HEPES pH 8.0 (Nacalai Tesque Co., Ltd.), 150 mM NaCl (Nacalai Tesque Co., Ltd.), 0.05% Tween 20 (Nacalai Tesque Co., Ltd.), 0.1% BSA (SIGMA-ALDRICH), and 1.0% DMSO (FUJIFILM Wako Pure Chemical Corporation), and equilibrated at a flow rate of 30 μL/min. 350 mM EDTA solution was reacted for 60 seconds at a flow rate of 10 μL/min, 0.5 mM NiCl2 solution (Kishida Chemical) was reacted for 60 seconds at a flow rate of 10 μL/min, and the NTA sensor chip was washed with 3 mM EDTA solution (Nacalai Tesque Co., Ltd.) for 60 seconds at a flow rate of 10 μL/min. After mixing 50 μL each of […] EDC solution (Global Life Science Technologies Japan Co., Ltd.) and […] NHS solution (Global Life Science Technologies Japan Co., Ltd.), the mixture was reacted for 420 seconds at a flow rate of 10 μL/min. 150 μL of a 0.5 μM hTfR solution was prepared by diluting with a running buffer and reacted for 300 seconds at a flow rate of 10 μL/min to immobilize hTfR on the NTA sensor chip. After immobilization, capping was performed by reacting with a 1.0 M ethanolamine aqueous solution (Global Life Science Technologies Japan Co., Ltd.) at a flow rate of 10 μL/min for 420 seconds. A peptide-nucleic acid conjugate solution adjusted to 10 mM in DMSO solution was diluted with running buffer to a final concentration of 10 μM peptide-nucleic acid conjugate solution, and 100 nM, 50 nM, 25 nM, 10 nM, 5 nM peptide-nucleic acid conjugate solutions were prepared. Using the aforementioned samples, the kinetics of the peptide against hTfR was obtained by SPR measurement.
# The kinetics evaluation model was Single Cycle Kinetics, and curve fitting was performed using Biacore T200 Evaluation Software Version 3.0 (Global Life Science Technologies Japan Co., Ltd.). The obtained sensorgram was subjected to curve fitting using the least squares method, and the binding of the peptide-nucleic acid conjugate to hTfR was evaluated by determining the KD value.
# Chain of transferrin receptor (hTfR) (P02786 whole entry): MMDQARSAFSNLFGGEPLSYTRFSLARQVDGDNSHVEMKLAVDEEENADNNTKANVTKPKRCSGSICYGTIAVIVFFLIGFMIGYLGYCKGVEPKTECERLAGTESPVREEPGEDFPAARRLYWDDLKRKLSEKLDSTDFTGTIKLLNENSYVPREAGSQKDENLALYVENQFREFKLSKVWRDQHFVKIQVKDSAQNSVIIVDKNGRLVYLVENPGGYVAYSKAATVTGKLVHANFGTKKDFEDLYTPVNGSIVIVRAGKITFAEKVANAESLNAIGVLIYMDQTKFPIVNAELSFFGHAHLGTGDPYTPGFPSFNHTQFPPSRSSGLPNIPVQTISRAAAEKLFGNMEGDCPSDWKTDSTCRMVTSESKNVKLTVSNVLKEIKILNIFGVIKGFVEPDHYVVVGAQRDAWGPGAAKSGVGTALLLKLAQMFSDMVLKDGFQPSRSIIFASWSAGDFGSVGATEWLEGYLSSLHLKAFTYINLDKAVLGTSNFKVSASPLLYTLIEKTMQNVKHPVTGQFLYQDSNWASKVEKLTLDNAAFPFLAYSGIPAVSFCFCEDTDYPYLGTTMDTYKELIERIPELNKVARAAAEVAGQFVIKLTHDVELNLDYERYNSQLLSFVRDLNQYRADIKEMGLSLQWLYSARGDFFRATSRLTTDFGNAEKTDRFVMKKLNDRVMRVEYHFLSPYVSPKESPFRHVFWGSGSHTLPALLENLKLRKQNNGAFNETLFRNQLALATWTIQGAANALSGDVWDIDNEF
row,SMILES,pKd
1,CC[C@H](C)[C@@H]1NC(=O)[C@H](Cc2ccc(O)cc2)NC(=O)[C@H](Cc2ccc(O)cc2)NC(=O)[C@H](CC(N)=O)NC(=O)[C@H](Cc2c[nH]c3ccccc23)NC(=O)[C@H](C(C)C)NC(=O)[C@H](Cc2ccccc2)N(C)C(=O)[C@H](C(C)C)NC(=O)[C@H](C)NC(=O)CSC[C@@H](C(=O)NCC(=O)N[C@@H](CCCCn2nnc3c2CCC2C(CC3)C2COC(=O)NCCOCCOCC(=O)N[C@@H](CCCNC(=N)N)C(=O)N[C@@H](CCCNC(=N)N)C(=O)N[C@@H](CCCNC(=N)N)C(=O)NCCC(=O)N2C[C@@H](COP(=O)(N(C)C)N3C[C@@H](COP(=O)(N(C)C)N4C[C@@H](COP(=O)(N(C)C)N5C[C@@H](COP(=O)(N(C)C)N6C[C@@H](COP(=O)(N(C)C)N7C[C@@H](COP(=O)(N(C)C)N8C[C@@H](COP(=O)(N(C)C)N9C[C@@H](COP(=O)(N(C)C)N%10C[C@@H](COP(=O)(N(C)C)N%11C[C@@H](COP(=O)(N(C)C)N%12C[C@@H](COP(=O)(N(C)C)N%13C[C@@H](COP(=O)(N(C)C)N%14C[C@@H](COP(=O)(N(C)C)N%15C[C@@H](COP(=O)(N(C)C)N%16C[C@@H](COP(=O)(N(C)C)N%17C[C@@H](COP(=O)(N(C)C)N%18C[C@@H](COP(=O)(N(C)C)N%19C[C@@H](COP(=O)(N(C)C)N%20C[C@@H](COP(=O)(N(C)C)N%21C[C@@H](COP(=O)(N(C)C)N%22C[C@@H](COP(=O)(N(C)C)N%23C[C@@H](COP(=O)(N(C)C)N%24C[C@@H](COP(=O)(N(C)C)N%25C[C@@H](COP(=O)(N(C)C)N%26C[C@@H](COP(=O)(N(C)C)N(C)CC(N)=O)O[C@@H](n%27cnc%28c(=O)[nH]c(N)nc%28%27)C%26)O[C@@H](n%26cc(C)c(=O)[nH]c%26=O)C%25)O[C@@H](n%25cc(C)c(=O)[nH]c%25=O)C%24)O[C@@H](n%24cnc%25c(=O)[nH]c(N)nc%25%24)C%23)O[C@@H](n%23ccc(N)nc%23=O)C%22)O[C@@H](n%22ccc(N)nc%22=O)C%21)O[C@@H](n%21cc(C)c(=O)[nH]c%21=O)C%20)O[C@@H](n%20ccc(N)nc%20=O)C%19)O[C@@H](n%19ccc(N)nc%19=O)C%18)O[C@@H](n%18cnc%19c(=O)[nH]c(N)nc%19%18)C%17)O[C@@H](n%17cnc%18c(=O)[nH]c(N)nc%18%17)C%16)O[C@@H](n%16cc(C)c(=O)[nH]c%16=O)C%15)O[C@@H](n%15cc(C)c(=O)[nH]c%15=O)C%14)O[C@@H](n%14ccc(N)nc%14=O)C%13)O[C@@H](n%13cc(C)c(=O)[nH]c%13=O)C%12)O[C@@H](n%12cnc%13c(=O)[nH]c(N)nc%13%12)C%11)O[C@@H](n%11cnc%12c(N)ncnc%12%11)C%10)O[C@@H](n%10cnc%11c(N)ncnc%11%10)C9)O[C@@H](n9cnc%10c(=O)[nH]c(N)nc%109)C8)O[C@@H](n8cnc9c(=O)[nH]c(N)nc98)C7)O[C@@H](n7cc(C)c(=O)[nH]c7=O)C6)O[C@@H](n6cnc7c(=O)[nH]c(N)nc76)C5)O[C@@H](n5cc(C)c(=O)[nH]c5=O)C4)O[C@@H](n4cc(C)c(=O)[nH]c4=O)C3)O[C@@H](n3ccc(N)nc3=O)C2)C(N)=O)NC(=O)[C@H](Cc2ccc(O)cc2)N(C)C(=O)[C@H](Cc2ccc(O)cc2)NC(=O)[C@H](CCCNC(=N)N)NC(=O)[C@H](CCCNC(=N)N)NC(=O)[C@H]([C@@H](C)CC)NC1=O (some centres unmarked) [Example 57],> 7.00
2,CC[C@H](C)[C@@H]1NC(=O)[C@H](Cc2ccc(O)cc2)NC(=O)[C@H](Cc2ccc(O)cc2)NC(=O)[C@H](CC(N)=O)NC(=O)[C@H](Cc2c[nH]c3ccccc23)NC(=O)[C@H](C(C)C)NC(=O)[C@H](Cc2ccccc2)N(C)C(=O)[C@H](C(C)C)NC(=O)[C@H](C)NC(=O)CSC[C@@H](C(=O)NCC(=O)N[C@@H](CCCCn2nnc3c2CCC2C(CC3)C2COC(=O)NCC(=O)NCC(=O)NCC(=O)N[C@@H](CCC(=O)O)C(=O)N[C@@H](CCC(=O)O)C(=O)N[C@@H](CCC(=O)O)C(=O)N[C@@H](CO)C(=O)N[C@@H](CO)C(=O)N[C@@H](CSC2CC(=O)N(CCC(=O)N3C[C@@H](COP(=O)(N(C)C)N4C[C@@H](COP(=O)(N(C)C)N5C[C@@H](COP(=O)(N(C)C)N6C[C@@H](COP(=O)(N(C)C)N7C[C@@H](COP(=O)(N(C)C)N8C[C@@H](COP(=O)(N(C)C)N9C[C@@H](COP(=O)(N(C)C)N%10C[C@@H](COP(=O)(N(C)C)N%11C[C@@H](COP(=O)(N(C)C)N%12C[C@@H](COP(=O)(N(C)C)N%13C[C@@H](COP(=O)(N(C)C)N%14C[C@@H](COP(=O)(N(C)C)N%15C[C@@H](COP(=O)(N(C)C)N%16C[C@@H](COP(=O)(N(C)C)N%17C[C@@H](COP(=O)(N(C)C)N%18C[C@@H](COP(=O)(N(C)C)N%19C[C@@H](COP(=O)(N(C)C)N%20C[C@@H](COP(=O)(N(C)C)N%21C[C@@H](COP(=O)(N(C)C)N%22C[C@@H](COP(=O)(N(C)C)N%23C[C@@H](COP(=O)(N(C)C)N%24C[C@@H](COP(=O)(N(C)C)N%25C[C@@H](COP(=O)(N(C)C)N%26C[C@@H](COP(=O)(N(C)C)N%27C[C@@H](COP(=O)(N(C)C)N(C)CC(N)=O)O[C@@H](n%28cnc%29c(=O)[nH]c(N)nc%29%28)C%27)O[C@@H](n%27cc(C)c(=O)[nH]c%27=O)C%26)O[C@@H](n%26cc(C)c(=O)[nH]c%26=O)C%25)O[C@@H](n%25cnc%26c(=O)[nH]c(N)nc%26%25)C%24)O[C@@H](n%24ccc(N)nc%24=O)C%23)O[C@@H](n%23ccc(N)nc%23=O)C%22)O[C@@H](n%22cc(C)c(=O)[nH]c%22=O)C%21)O[C@@H](n%21ccc(N)nc%21=O)C%20)O[C@@H](n%20ccc(N)nc%20=O)C%19)O[C@@H](n%19cnc%20c(=O)[nH]c(N)nc%20%19)C%18)O[C@@H](n%18cnc%19c(=O)[nH]c(N)nc%19%18)C%17)O[C@@H](n%17cc(C)c(=O)[nH]c%17=O)C%16)O[C@@H](n%16cc(C)c(=O)[nH]c%16=O)C%15)O[C@@H](n%15ccc(N)nc%15=O)C%14)O[C@@H](n%14cc(C)c(=O)[nH]c%14=O)C%13)O[C@@H](n%13cnc%14c(=O)[nH]c(N)nc%14%13)C%12)O[C@@H](n%12cnc%13c(N)ncnc%13%12)C%11)O[C@@H](n%11cnc%12c(N)ncnc%12%11)C%10)O[C@@H](n%10cnc%11c(=O)[nH]c(N)nc%11%10)C9)O[C@@H](n9cnc%10c(=O)[nH]c(N)nc%109)C8)O[C@@H](n8cc(C)c(=O)[nH]c8=O)C7)O[C@@H](n7cnc8c(=O)[nH]c(N)nc87)C6)O[C@@H](n6cc(C)c(=O)[nH]c6=O)C5)O[C@@H](n5cc(C)c(=O)[nH]c5=O)C4)O[C@@H](n4ccc(N)nc4=O)C3)C2=O)C(N)=O)C(N)=O)NC(=O)[C@H](Cc2ccc(O)cc2)N(C)C(=O)[C@H](Cc2ccc(O)cc2)NC(=O)[C@H](CCCNC(=N)N)NC(=O)[C@H](CCCNC(=N)N)NC(=O)[C@H]([C@@H](C)CC)NC1=O (some centres unmarked) [Example 58],> 7.00
